In ChEMBL document CHEMBL1158658, “Pyrrolizidine Alkaloids From Middle Eastern Plants” (1979):

Columns and labels:
Type in all cases: functional
[1] = test system: P388; test: Antitumor activity against mouse P388 cells xenografted in male organism at 200 mg/kg relative to control
[2] = test system: P388; test: Antitumor activity against mouse P388 cells xenografted in male organism at 100 mg/kg relative to control
[3] = test system: P388; test: Antitumor activity against mouse P388 cells xenografted in male organism at 800 mg/kg relative to control
[4] = test system: P388; test: Antitumor activity against mouse P388 cells xenografted in male organism at 400 mg/kg relative to control
[5] = test system: P388; test: Antitumor activity against mouse P388 cells xenografted in female organism at 800 mg/kg relative to control
[6] = test system: P388; test: Antitumor activity against mouse P388 cells xenografted in female organism at 50 mg/kg relative to control
[7] = test system: P388; test: Antitumor activity against mouse P388 cells xenografted in female organism at 200 mg/kg relative to control
[8] = test system: P388; test: Antitumor activity against mouse P388 cells xenografted in female organism at 400 mg/kg relative to control
[9] = test system: P388; test: Antitumor activity against mouse P388 cells xenografted in female organism at 100 mg/kg relative to control

| Compound | T/C [1] | T/C [2] | T/C [3] | T/C [4] | T/C [5] | T/C [6] | T/C [7] | T/C [8] | T/C [9] |
| --- | --- | --- | --- | --- | --- | --- | --- | --- | --- |
| CO[C@@H](C)[C@](O)(C(=O)OCC1=CC[N+]2([O-])CC[C@H](O)[C@@H]12)C(C)(C)O (stereo not given in full) | 102 | 111 | 111 | 129 | – | – | – | – | – |
| CC(C)[C@@](O)(C(=O)OCC1=CC[N+]2([O-])CC[C@H](O)[C@@H]12)[C@H](C)O (stereo not given in full) | – | – | – | – | 145 | 109 | 118 | 138 | 113 |
| CC(C)[C@](O)(C(=O)OCC1=CC[N+]2([O-])CC[C@@H](O)[C@@H]12)[C@H](C)O (stereo not given in full) [INDICINE N-OXIDE] | 147 | – | 187 | 165 | 109 | – | 130 | 136 | – |
